Test results published in PubChem BioAssay AID248 (DTP/NCI, 2004).
Toxic doses and inconclusive results are not listed. Cut-off read from the data, not from the text of the source: active = T/C of 150% or more; inactive = T/C below 125%.

Test system: L1210 leukemia ip in BDF1 mice, survival T/C
Assay: NCI In Vivo Anticancer Drug Screen. Data for tumor model L1210 Leukemia (intraperitoneal) in B6D2F1 (BDF1) mice
Conditions: endpoint: mean survival time, higher = longer survival
Summary of the method: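 Value reflects the ratio of survival in compound-treated mice to survival in vehicle-treated controls, with both groups carrying the same transplanted tumor.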

[1] = dose: 100.0 mg/kg/injection, schedule: Q04DX003 (ip), vehicle: saline
[2] = dose: 200.0 mg/kg/injection, schedule: Q04DX003 (ip), vehicle: saline
[3] = dose: 100.0 mg/kg/injection, schedule: Q01DX009 (ip), vehicle: saline with Tween-80
[4] = dose: 200.0 mg/kg/injection, schedule: Q01DX009 (ip), vehicle: saline with Tween-80
[5] = dose: 400.0 mg/kg/injection, schedule: Q04DX003 (ip), vehicle: saline
[6] = dose: 100.0 mg/kg/injection, schedule: Q01DX001 (ip), vehicle: saline
[7] = dose: 200.0 mg/kg/injection, schedule: Q01DX001 (ip), vehicle: saline
[8] = dose: 400.0 mg/kg/injection, schedule: Q01DX001 (ip), vehicle: saline
[9] = dose: 100.0 mg/kg/injection, schedule: Q01DX009 (ip), vehicle: Klucel (hydroxypropylcellulose) (HPC)
[10] = dose: 200.0 mg/kg/injection, schedule: Q01DX009 (ip), vehicle: Klucel (hydroxypropylcellulose) (HPC)
[11] = dose: 100.0 mg/kg/injection, schedule: Q04DX002 (ip), vehicle: saline with Tween-80
[12] = dose: 400.0 mg/kg/injection, schedule: Q04DX002 (ip), vehicle: saline with Tween-80

Measured: T/C

CS(=O)(=O)Nc1cc(C(O)C2CCCCN2)ccc1O (stereo not drawn)
inactive: dose: 25.0 mg/kg/injection, schedule: Q01DX009 (ip), vehicle: saline 103 % of control | dose: 50.0 mg/kg/injection, schedule: Q01DX009 (ip), vehicle: saline 97 % of control | dose: 100.0 mg/kg/injection, schedule: Q01DX009 (ip), vehicle: saline 95 % of control | [1] 104 % of control | [2] 104 % of control

CCCCNC(C)(C)C(=O)c1ccco1
inactive: dose: 50.0 mg/kg/injection, schedule: Q01DX009 (ip), vehicle: saline with Tween-80 100 % of control | [3] 97 % of control | [4] 111 % of control

CC(=O)OC1CCC2(C)C(CCC3(C)C2CC=C2C4=C(CCC(C)(C)C4=O)CCC23C)C1(C)C (stereo not drawn)
inactive: [1] 102 % of control | [2] 100 % of control | [5] 92 % of control

O=C1C(c2ccc(O)cc2)C2C=CC(C2)N1O (stereo not drawn)
inactive: [6] 95 % of control | [7] 103 % of control | [8] 95 % of control

CCCCCCCCCCCCn1cnc2c(=S)nc[nH]c21
inactive: dose: 12.5 mg/kg/injection, schedule: Q01DX005 (ip), vehicle: other 106 % of control | dose: 25.0 mg/kg/injection, schedule: Q01DX005 (ip), vehicle: other 101 % of control | dose: 50.0 mg/kg/injection, schedule: Q01DX005 (ip), vehicle: other 100 % of control | dose: 100.0 mg/kg/injection, schedule: Q01DX005 (ip), vehicle: other 106 % of control | dose: 200.0 mg/kg/injection, schedule: Q01DX005 (ip), vehicle: other 89 % of control

CC(=O)Nc1ccc(NC(=O)NCCCl)cc1
inactive: dose: 50.0 mg/kg/injection, schedule: Q01DX009 (ip), vehicle: Klucel (hydroxypropylcellulose) (HPC) 96 % of control | [9] 99 % of control | dose: 100.0 mg/kg/injection, schedule: Q04DX003 (ip), vehicle: Klucel (hydroxypropylcellulose) (HPC) 103 % of control | [10] 89 % of control | dose: 200.0 mg/kg/injection, schedule: Q04DX003 (ip), vehicle: Klucel (hydroxypropylcellulose) (HPC) 100 % of control

COc1ccc(C=NC(C)(C)CO)cc1
inactive: dose: 100.0 mg/kg/injection, schedule: Q01DX001 (ip), vehicle: steriod suspending solution 114 % of control | dose: 200.0 mg/kg/injection, schedule: Q01DX001 (ip), vehicle: steriod suspending solution 90 % of control | dose: 400.0 mg/kg/injection, schedule: Q01DX001 (ip), vehicle: steriod suspending solution 97 % of control

O=C(O)C(F)(F)C(F)(F)C(F)(F)F
inactive: [6] 105 % of control | [7] 103 % of control | [8] 92 % of control

COc1cc(C(=O)c2ccccc2C(=O)O)c(OC)c2c1CCCC2
inactive: dose: 100.0 mg/kg/injection, schedule: Q01DX001 (ip), vehicle: carboxymethylcellulose (CMC) 91 % of control | dose: 200.0 mg/kg/injection, schedule: Q01DX001 (ip), vehicle: carboxymethylcellulose (CMC) 92 % of control | dose: 400.0 mg/kg/injection, schedule: Q01DX001 (ip), vehicle: carboxymethylcellulose (CMC) 96 % of control

CC(=O)OC1C(=O)C(C)(C)CSCC1(C)C (stereo not drawn)
inactive: [9] 103 % of control | [10] 103 % of control | dose: 400.0 mg/kg/injection, schedule: Q01DX009 (ip), vehicle: Klucel (hydroxypropylcellulose) (HPC) 105 % of control

COC(=O)C1C(O)CN2CCCC12 (stereo not drawn)
inactive: [1] 93 % of control | [2] 93 % of control | [5] 93 % of control

O=C(Nc1cccc2ncccc12)c1ccc(C(=O)Nc2cccc3ncccc23)cc1
inactive: [6] 101 % of control | [7] 93 % of control | [8] 91 % of control

C=CC(C)C/C(CC)=N\NC(N)=O (stereo not drawn)
inactive: dose: 75.0 mg/kg/injection, schedule: Q01DX001 (ip), vehicle: other 98 % of control | dose: 150.0 mg/kg/injection, schedule: Q01DX001 (ip), vehicle: other 103 % of control

CN(C)P(=O)(c1ccccc1)c1ccccc1
inactive: [11] 112 % of control | dose: 200.0 mg/kg/injection, schedule: Q04DX002 (ip), vehicle: saline with Tween-80 102 % of control | [12] 94 % of control

O/N=C(\c1ccccc1)C1C(/C(=N/O)c2ccccc2)C1c1ccccc1 (stereo not drawn)
inactive: [11] 88 % of control | [12] 88 % of control

CS/C(N)=N\N=C\c1ccccn1
inactive: dose: 12.5 mg/kg/injection, schedule: Q01DX001 (ip), vehicle: carboxymethylcellulose (CMC) 104 % of control | dose: 25.0 mg/kg/injection, schedule: Q01DX001 (ip), vehicle: carboxymethylcellulose (CMC) 103 % of control

CC1=Nc2ccccc2SC(C)(C)C1
inactive: dose: 50.0 mg/kg/injection, schedule: Q01DX001 (ip), vehicle: Klucel (hydroxypropylcellulose) (HPC) 98 % of control | dose: 100.0 mg/kg/injection, schedule: Q01DX001 (ip), vehicle: Klucel (hydroxypropylcellulose) (HPC) 91 % of control | dose: 200.0 mg/kg/injection, schedule: Q01DX001 (ip), vehicle: Klucel (hydroxypropylcellulose) (HPC) 109 % of control | dose: 400.0 mg/kg/injection, schedule: Q01DX001 (ip), vehicle: Klucel (hydroxypropylcellulose) (HPC) 98 % of control

O=C(Nc1ccc(Cl)cc1C(F)(F)F)OCCOc1ccccc1Cl
inactive: [3] 91 % of control | [4] 95 % of control | dose: 400.0 mg/kg/injection, schedule: Q01DX009 (ip), vehicle: saline with Tween-80 93 % of control
